Test results from ChEMBL document CHEMBL1142808, “O-Methylglucogalloyl esters: synthesis and evaluation of their antimycotic activity” (2005).
Converted amounts (≈) assume the structure as drawn.

Experiments:
Format in all cases: functional
[1] = Minimum inhibitory concentration against Issatchenkia orientalis DBVPG 6782; settings: Pichia kudriavzevii
[2] = Minimum inhibitory concentration in association with mixture of alpha/beta O-methylgluco-2,3-digalloyl ester (49.8 µg/mL) against Issatchenkia orientalis DBVPG 6782; settings: Pichia kudriavzevii
Candida albicans [3] = assay: Minimum inhibitory concentration in association with mixture of alpha/beta O-methylgluco-2,3-digalloyl ester (49.8 µg/mL) against Candida albicans DBVPG 6133
Candida albicans [4] = assay: Minimum inhibitory concentration against Candida albicans DBVPG 6133
Nakaseomyces glabratus [5] = assay: Minimum inhibitory concentration against Candida glabrata DBVPG 3828
Nakaseomyces glabratus [6] = assay: Minimum inhibitory concentration in association with mixture of alpha/beta O-methylgluco-2,3-digalloyl ester (49.8 µg/mL) against Candida glabrata DBVPG 3828
Candida albicans [7] = assay: Minimum inhibitory concentration in association with methyl gallate (36.8 µg/mL) against Candida albicans DBVPG 6133
Nakaseomyces glabratus [8] = assay: Minimum inhibitory concentration in association with methyl gallate (36.8 µg/mL) against Candida glabrata DBVPG 3828
Candida albicans [9] = assay: Minimum inhibitory concentration in association with gallic acid (34.0 µg/mL) against Candida albicans DBVPG 6133
Nakaseomyces glabratus [10] = assay: Minimum inhibitory concentration in association with gallic acid (34.0 µg/mL) against Candida glabrata DBVPG 3828
[11] = Minimum inhibitory concentration in association with gallic acid (34.0 µg/mL) against Issatchenkia orientalis DBVPG 6782; settings: Pichia kudriavzevii
[12] = Minimum inhibitory concentration in association with methyl gallate (36.8 µg/mL) against Issatchenkia orientalis DBVPG 6782; settings: Pichia kudriavzevii
Candida albicans [13] = assay: Minimum inhibitory concentration (mixture of alpha and beta) against Candida albicans DBVPG 6133
Nakaseomyces glabratus [14] = assay: Minimum inhibitory concentration (mixture of alpha and beta) against Candida glabrata DBVPG 3828
[15] = Minimum inhibitory concentration (mixture of alpha and beta) against Issatchenkia orientalis DBVPG 6782; settings: Pichia kudriavzevii

SMILES | MIC [1] | MIC [2] | MIC (Candida albicans [3]) | MIC (Candida albicans [4]) | MIC (Nakaseomyces glabratus [5]) | MIC (Nakaseomyces glabratus [6]) | MIC (Candida albicans [7]) | MIC (Nakaseomyces glabratus [8]) | MIC (Candida albicans [9]) | MIC (Nakaseomyces glabratus [10]) | MIC [11] | MIC [12] | MIC (Candida albicans [13]) | MIC (Nakaseomyces glabratus [14]) | MIC [15]
C[C@@H]1[C@H](O)[C@@H](C)/C=C/C=C/C=C/C=C/C=C/C=C/C=C/[C@H](O[C@@H]2O[C@H](C)[C@@H](O)[C@H](N)[C@@H]2O)C[C@@H]2O[C@](O)(C[C@@H](O)C[C@@H](O)[C@H](O)CC[C@@H](O)C[C@@H](O)CC(=O)O[C@H]1C)C[C@H](O)[C@H]2C(=O)O [AMPHOTERICIN B] | > 100 µg/mL | 2.05 µg/mL (≈ 2.22 µM) | 0.05 µg/mL (≈ 0.0541 µM) | 1.06 µg/mL (≈ 1.15 µM) | 1.06 µg/mL (≈ 1.15 µM) | 0.05 µg/mL (≈ 0.0541 µM) | 0.09 µg/mL (≈ 0.0974 µM) | 0.09 µg/mL (≈ 0.0974 µM) | 0.09 µg/mL (≈ 0.0974 µM) | 1 µg/mL (≈ 1.08 µM) | 8 µg/mL (≈ 8.66 µM) | 45 µg/mL (≈ 48.7 µM) | – | – | –
COC1O[C@H](CO)[C@@H](O)[C@H](OC(=O)c2cc(O)c(O)c(O)c2)[C@H]1OC(=O)c1cc(O)c(O)c(O)c1 (stereo not given in full) | – | – | – | – | – | – | – | – | – | – | – | – | 1940 µg/mL (≈ 3890 µM) | > 4670 µg/mL | > 4670 µg/mL
